Measurements taken from ChEMBL document CHEMBL5331060, “Bisindole natural products: A vital source for the development of new anticancer drugs” (Eur J Med Chem, 2022).
Values after ≈ are worked out from the molar mass of the structure shown. One block for each molecule: values may come before it.

Tests used:
Assay type in all cases: functional, cell-based
HT-29 [1] = assay: Antiproliferative activity against human HT-29 cells assessed as inhibition of cell growth incubated for 48 hrs by SRB assay; settings: HT-29, time 48 hrs, read-out: ED50 (the source's name)
A549 [2] = assay: Antiproliferative activity against human A549 cells assessed as inhibition of cell growth incubated for 48 hrs by MTT assay; settings: A549, 48 h
K562 = assay: Antiproliferative activity against human K562 cells assessed as inhibition of cell growth incubated for 48 hrs by MTT assay; settings: K562, 48 h
PC-3 = assay: Antiproliferative activity against human PC-3 cells assessed as inhibition of cell growth incubated for 48 hrs by MTT assay; settings: PC-3, 48 h
BT-549 = assay: Antiproliferative activity against human BT-549 cells assessed as inhibition of cell growth incubated for 48 hrs by MTT assay; settings: BT-549, 48 h
HepG2 [3] = assay: Antiproliferative activity against human HepG2 cells assessed as inhibition of cell growth by MTT assay
NCI-H460 = assay: Antiproliferative activity against human NCI-H460 cells assessed as inhibition of cell growth by MTT assay
MCF7 [4] = assay: Antiproliferative activity against human MCF7 cells assessed as inhibition of cell growth incubated for 48 hrs by MTT assay; settings: MCF7, 48 h
4T1 = assay: Antiproliferative activity against mouse 4T1 cells assessed as inhibition of cell growth incubated for 48 hrs by MTT assay; settings: 4T1, 48 h
SMMC-7721 [5] = assay: Antiproliferative activity against human SMMC-7721 cells assessed as inhibition of cell growth incubated for 48 hrs by MTS assay; settings: SMMC-7721, 48 h
A549 [6] = assay: Antiproliferative activity against human A549 cells assessed as inhibition of cell growth incubated for 48 hrs by MTS assay; settings: A549, 48 h
HeLa = assay: Antiproliferative activity against human HeLa cells assessed as inhibition of cell growth incubated for 48 hrs by MTS assay
HepG2 [7] = assay: Antiproliferative activity against human HepG2 cells assessed as inhibition of cell growth incubated for 48 hrs by MTS assay; settings: HepG2, 48 h
A549 [8] = assay: Antiproliferative activity against human A549 cells assessed as inhibition of cell growth
HT-29 [9] = assay: Antiproliferative activity against human HT-29 cells assessed as inhibition of cell growth
HL-60 = assay: Antiproliferative activity against human HL-60 cells assessed as inhibition of cell growth incubated for 48 hrs by MTT assay; settings: HL-60, 48 h
SMMC-7721 [10] = assay: Antiproliferative activity against human SMMC-7721 cells assessed as inhibition of cell growth incubated for 48 hrs by MTT assay; settings: SMMC-7721, 48 h
SK-BR-3 = assay: Antiproliferative activity against human SK-BR-3 cells assessed as inhibition of cell growth incubated for 48 hrs by MTT assay; settings: SK-BR-3, 48 h
PANC-1 = assay: Antiproliferative activity against human PANC-1 cells assessed as inhibition of cell growth incubated for 48 hrs by MTT assay; settings: PANC-1, 48 h
KB = assay: Antiproliferative activity against drug-sensitive human KB cells assessed as inhibition of cell growth
[11] = Antiproliferative activity against vincristine-resistant human KB cells assessed as inhibition of cell growth
Jurkat = assay: Antiproliferative activity against human Jurkat cells assessed as inhibition of cell growth
P388 = assay: Antiproliferative activity against mouse P388 cells assessed as inhibition of cell growth
HepG2 [12] = assay: Antiproliferative activity against human HepG2 cells assessed as inhibition of cell growth incubated for 24 hrs by colorimetric method; settings: HepG2, 24 h
SMMC-7721 [13] = assay: Antiproliferative activity against human SMMC-7721 cells assessed as inhibition of cell growth
MCF7 [14] = assay: Antiproliferative activity against human MCF7 cells assessed as inhibition of cell growth
SW480 = assay: Antiproliferative activity against human SW480 cells assessed as inhibition of cell growth
AGS = assay: Antiproliferative activity against human AGS cells assessed as inhibition of cell growth incubated for 24 hrs by MTT assay
L1210 = assay: Antiproliferative activity against mouse L1210 cells assessed as inhibition of cell growth incubated for 24 hrs by MTT assay; settings: L1210, 24 h
[15] = Antiproliferative activity against human BC cells assessed as inhibition of cell growth incubated for 24 hrs by MTT assay
HepG2 [16] = assay: Antiproliferative activity against human HepG2 cells assessed as inhibition of cell growth incubated for 24 hrs by MTT assay; settings: HepG2, 24 h

SMILES: CC[C@]12C=C[C@H](C3=CC4CC(C(=O)OC)=C5Nc6cc(OC)ccc6[C@@]56CCN(C3)[C@@H]46)N3CC[C@]4(C(=C(C(=O)OC)C1)Nc1cc(OC)ccc14)[C@@H]32 (some centres undefined)
IC50 (A549 [2]): 11400 nM | IC50 (K562): 10700 nM | IC50 (PC-3): 3440 nM | IC50 (BT-549): 890 nM

SMILES: C/C=C1/CN(C)[C@H]2Cc3c([nH]c4ccccc34)[C@H](c3cc4[nH]c5c(c4cc3OC)CCN3C[C@@H]4C[C@H](CC)[C@H]3[C@@]5(C(=O)OC)C4)C[C@@H]1C2C(=O)OC (some centres undefined)
IC50 (MCF7 [4]): 990 nM | IC50 (4T1): 1420 nM

SMILES: CC[C@]12CCCn3c(Cc4cc5c6n4CCC[C@]6(CC)CCC(=O)Nc4ccccc4-5)cc(c31)-c1ccccc1NC(=O)CC2
IC50 (SMMC-7721 [5]): 4310 nM | IC50 (A549 [6]): 16200 nM | IC50 (HeLa): 4400 nM | IC50 (HepG2 [7]): 7020 nM

SMILES: COC(=O)C1=CN2CCc3c([nH]c4ccccc34)[C@@H]2C[C@@H]1C1=CO[C@@H]([C@H]2[C@@H]3CCN4CC[C@@]5(C(=C3C(=O)OC)Nc3ccccc35)[C@@H]24)C[C@@H]1C
IC50 (A549 [8]): 3.09 nM | IC50 (HT-29 [9]): 2.05 nM

SMILES: COc1cc2c(cc1CC(C(C)=O)[C@@H]1C[C@H]3c4c(c5ccccc5n4C)C[C@@H]([C@@H]1CO)N3C)c1c(n2C)[C@@H]2C[C@H]3C(C(C)=O)=COC[C@H]3[C@H](C1)N2C (some centres undefined)
IC50 (P388): 12.3 µg/mL (≈ 17.4 µM)

SMILES: CC[C@@]12CC(C(=O)OC)=C3Nc4cc5c(cc4[C@@]34CCN(C[C@H]3O[C@H]31)[C@@H]24)[C@@H]1[C@H](O5)[C@@H](O)[C@@]2(CC)CC(C(=O)OC)=C3Nc4c(cc(O)c(OC)c4OC)[C@@]34CCN1[C@@H]24 [CONOPHYLLINE]
IC50 (A549 [8]): 170 nM | IC50 (SMMC-7721 [13]): 170 nM | IC50 (MCF7 [14]): 170 nM | IC50 (SW480): 170 nM

SMILES: O=C1N[C@@H](c2c[nH]c3cc(Br)ccc23)CN=C1c1c[nH]c2cc(Br)ccc12 [HAMACANTHIN A]
IC50 (AGS): 1.1 µg/mL (≈ 2.26 µM) | IC50 (L1210): 1.1 µg/mL (≈ 2.26 µM) | IC50 [15]: 10.7 µg/mL (≈ 22 µM) | IC50 (HepG2 [16]): 12.5 µg/mL (≈ 25.7 µM)

More lines, main results first:

EC50 (HT-29 [1]): 6500 nM
SMILES: C/C=C1/C[N+]2(C)CC[C@@]34C[C@H]5[C@@H]6C[C@H]7c8c(c9ccccc9n8C)C[C@@H]([C@@H]6CO[C@@]5(C)O[C@@]35[C@@H]2C[C@@H]1[C@@H](C(=O)OC)N5c1ccccc14)N7C (some centres undefined)

IC50 (HepG2 [3]): 6 µg/mL (≈ 14.1 µM) | IC50 (NCI-H460): 15 µg/mL (≈ 35.4 µM)
SMILES: COC(=O)c1[nH]cc2c1[C@]1(CNc3ccc(Cl)cc31)c1[nH]c3ccc(Cl)cc3c1-2

IC50 (MCF7 [4]): 500 nM | IC50 (A549 [2]): 500 nM | IC50 (HL-60): 500 nM | IC50 (SMMC-7721 [10]): 500 nM | IC50 (SK-BR-3): 500 nM | IC50 (PANC-1): 500 nM
SMILES: CCC12CCCN3CC[C@@]4(OC)c5cc([C@@H]6C[C@@]7(CC)CCCN8CCc9c(n6c6ccccc96)[C@H]87)c(O)cc5N(CCC1)C324 (some centres undefined)

IC50 (KB): 3.2 µg/mL (≈ 4.03 µM) | IC50 (Jurkat): 3.7 µg/mL (≈ 4.65 µM)
SMILES: C/C=C1/CN2CC[C@]34c5ccccc5N5[C@H](C(=O)OC)[C@H]1C[C@H]2[C@@]53Oc1c4cc2c(c1O)C(=O)O[C@@]13[C@@H]4C[C@H]5/C(=C\C)CN4CC[C@@]21c1ccccc1N3[C@@H]5C(=O)OC
IC50 [11]: 2 µg/mL (≈ 2.52 µM)

IC50 (HepG2 [12]): 24.6 µg/mL (≈ 61.7 µM)
SMILES: COC(=O)/C1=C/c2c([nH]c3ccccc23)/C(C(=O)OC)=C\c2c1[nH]c1ccccc21 [CAULERPIN]
